We go through 19 compounds from patent US11229636B2, “Substituted tetrahydroquinolinone compounds as ROR gamma modulators” (Aurigene Discovery Technologies Limited, priority 2015, dated 2022).

Where only a bound is given, the exact number is not on record here.

For one assay, the target named is RORγ LBD (Homo sapiens (Human), UniProt P51449). The assay can be described thus: ROR gamma radio-ligand binding assay (3H 25-Hydroxycholesterol competitive displacement, dextran charcoal method). The following applies: for IC50: in range; for RORγ ligand binding assay: % inhibition @1 μM / inhibition at 1 µM: 1 μM compound; for RORγ ligand binding assay: % inhibition @ 10 μM / inhibition at 10 µM: 10 μM compound. The procedure: Gene corresponding to the ligand binding domain of RORγ (247-497 amino acids) was sub-cloned into pGEX4T1 vector. Transformants of E. coli BL21 (DE3) containing pGEX4T1-RORγ (247-497) were grown to an OD of 0.8 at 37° C. and induced with 0.5 mM isopropyl-β-D-thiogalactopyranoside (IPTG) for 18 hours at 18° C. Cells were harvested and resuspended in 20 mM Tris-HCl (pH 8.5), 0.3 M NaCl, 10% Glycerol, 2 mM β-Me (β-Mercaptoethanol), 2 mM CHAPS, protease inhibitors, 0.6 mM PMSF and Lysozyme. Supernatant of lysate was passed through glutathione sepharose 4B affinity beads (GE health care) pre-equilibrated with 20 mM Tris-HCl (pH 8.5), 0.3 M NaCl, 10% Glycerol, 2 mM β-Me. RORγ was eluted using a gradient of reduced glutathione (3-20 mM). Fractions containing RORγ protein were pooled, concentrated and passed through Superdex 75 gel filtration (GE health care) column equilibrated with 20 mM Na-phosphate pH 8.0, 0.2 M NaCl, 10% glycerol. The peak fractions from gel filtration column were pooled and stored at −80° C. for Binding assay.
RORγ LBD, sequence (P51449 268-518): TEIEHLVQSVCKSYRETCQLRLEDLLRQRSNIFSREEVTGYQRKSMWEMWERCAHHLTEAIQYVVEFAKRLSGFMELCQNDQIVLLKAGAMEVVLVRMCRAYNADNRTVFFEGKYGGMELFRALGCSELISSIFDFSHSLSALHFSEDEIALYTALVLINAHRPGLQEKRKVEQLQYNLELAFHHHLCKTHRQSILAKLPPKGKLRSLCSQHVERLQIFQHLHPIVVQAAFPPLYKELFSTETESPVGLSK
ROR gamma radioligand binding was performed using ^3H 25-Hydroxycholesterol in a competitive displacement assay using dextran charcoal method. Using 5 nM ^3H 25-Hydroxycholesterol with 300 ng RORγ LBD (in house expressed in E. coli) along with the compound were incubated in the binding buffer (50 mM HEPES, pH 7.5, 150 mM NaCl, 0.01% BSA and 5 mM MgCl2) for 30 min at room temperature. Then dextran-charcoal mixture (0.5% charcoal: 0.05% dextran) was used for separation and the supernatant was read on the Perkin Elmer Trilux Microbeta counter. Dose response curves were generated for 10 compound concentrations using GraphPad Prism software Version 5 (San Diego, Calif., USA) using non-linear regression curve fit for sigmoidal dose response (variable slope).

The target in assay [1] is ROR gamma ligand binding domain (Homo sapiens (Human), UniProt P51449). The assay can be described thus: ROR gamma luciferase reporter assay (GAL4-ROR gamma LBD, HEK293 cells). It counts as cell-based. The following applies: 48 hours treatment, read-out: RORγ luciferase Reporter assay: IC50 (nM) (in range). The protocol: The Ligand Binding Domain (LBD) of ROR gamma was cloned into pFN26A (BIND) hRluc-neo Flexi vector (Promega) which expresses a fusion protein comprised of a DNA binding domain of the yeast GAL4 gene, a linker segment and ROR gamma ligand binding domain. For the reporter assay 0.02×10^6 HEK293 cells were seeded per well in a 96 well plate in complete media and incubated overnight in an incubator with 5% CO2 at 37° C. before transfection. Cells were then co-transfected with pFN26A hRluc-neo Flexi vector containing the LBD of ROR gamma and pGL4.35 [luc2P/9XGAL4 UAS/Hygro] Vector (Promega) in low serum media. Post transfection and recovery, cells were treated with the test compounds for 48 hours. The assay was terminated using the Bright-Glo Luciferase assay system from Promega and the Luminescence was measured using a luminescence reader. The luminescence values were used to calculate the potency of the compounds.
ROR gamma ligand binding domain, sequence (P51449 269-508): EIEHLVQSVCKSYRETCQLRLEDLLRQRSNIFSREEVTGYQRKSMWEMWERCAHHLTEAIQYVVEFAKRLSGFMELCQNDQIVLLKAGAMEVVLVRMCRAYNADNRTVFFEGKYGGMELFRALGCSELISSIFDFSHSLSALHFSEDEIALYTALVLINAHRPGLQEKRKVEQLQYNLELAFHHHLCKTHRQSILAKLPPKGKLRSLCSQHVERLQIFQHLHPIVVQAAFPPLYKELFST
For orientation: In a reporter assay the amount or activity of a reporter protein is the signal.

What is called IC50 is the point on the concentration scale where inhibition reaches its midpoint. Consider `CCS(=O)(=O)c1ccc(CC(=O)Nc2ccc3c(n2)CCC(C)(c2ccc(OC)nn2)C3=O)cc1` (stereo not shown) [Compound 12, 2-(4-(ethylsulfonyl)phenyl)-N-(6-(6-methoxypyridazin-3-yl)-6-methyl-5-oxo-5,6,7,8-tetrahydroquinolin-2-yl)acetamide], for which the IC50 at RORγ LBD is less than 150 nM; in assay [1] it was 100 to 500 nM.

`CCS(=O)(=O)c1ccc(CC(=O)Nc2ccc3c(n2)CCC(C)(c2ncc(OC)cn2)C3=O)cc1` (single isomer, unassigned) [compound 112, 2-(4-(ethylsulfonyl)phenyl)-N-(6-(5-methoxypyrimidin-2-yl)-6-methyl-5-oxo-5,6,7,8-tetrahydroquinolin-2-yl)acetamide]: at RORγ LBD, the “RORγ ligand binding assay: % inhibition @1 μM” value was found to be 100%, the “RORγ ligand binding assay: % inhibition @ 10 μM” value worked out at 73% and the IC50 is less than 150 nM. Moreover, the IC50 in assay [1] was in the range of 100 to 500 nM.

What is called inhibition is the drop in the measured response relative to a control, in per cent. Read a high inhibition as strong suppression. On RORγ LBD, `CCS(=O)(=O)c1ccc(CC(=O)Nc2cc(C)c3c(n2)CCC(C)(c2ccc(OC)nn2)C3=O)cc1` (stereo not shown) [Compound 31, 2-(4-(ethylsulfonyl)phenyl)-N-(6-(6-methoxypyridazin-3-yl)-4,6-dimethyl-5-oxo-5,6,7,8-tetrahydroquinolin-2-yl)acetamide] showed an inhibition at 1 µM of 90%, an inhibition at 10 µM of 88% and an IC50 of less than 150 nM. Also, in assay [1], the half-inhibitory concentration (IC50) is less than 100 nM.

Regarding `CCS(=O)(=O)c1ccc(CC(=O)Nc2cc(C)c3c(n2)CCC(C)(c2nccc(OC)n2)C3=O)cc1` (stereo not shown) [Compound 21, 2-(4-(ethylsulfonyl)phenyl)-N-(6-(4-methoxypyrimidin-2-yl)-4,6-dimethyl-5-oxo-5,6,7,8-tetrahydroquinolin-2-yl)acetamide], at RORγ LBD, at 1 µM the inhibition was 94%, testing at 10 µM gave an inhibition of 92% and the IC50 was 150 to 300 nM. The IC50 in assay [1] was less than 100 nM.

Regarding `CCS(=O)(=O)c1ccc(CC(=O)Nc2ccc3c(n2)CCC(C)(c2cc(C)nc(C)n2)C3=O)cc1` (single isomer, unassigned) [compound 103, N-(6-(2,6-dimethylpyrimidin-4-yl)-6-methyl-5-oxo-5,6,7,8-tetrahydroquinolin-2-yl)-2-(4-(ethylsulfonyl)phenyl)acetamide], on RORγ LBD, the “RORγ ligand binding assay: % inhibition @1 μM” value is reported as 26% and the “RORγ ligand binding assay: % inhibition @ 10 μM” value is listed as 0%. The IC50 in assay [1] is greater than 500 nM.

Turning to `CCS(=O)(=O)c1ccc(CC(=O)Nc2ccc3c(n2)CCC(C)(c2cc(C)nc(C)n2)C3=O)cc1` (single isomer, unassigned) [compound 104, N-(6-(2,6-dimethylpyrimidin-4-yl)-6-methyl-5-oxo-5,6,7,8-tetrahydroquinolin-2-yl)-2-(4-(ethylsulfonyl)phenyl)acetamide], on RORγ LBD, the “RORγ ligand binding assay: % inhibition @1 μM” value turned out to be 94%, the “RORγ ligand binding assay: % inhibition @ 10 μM” value is given as 88% and the IC50 is less than 150 nM. For the same compound, in assay [1], the half-maximal inhibitory concentration (IC50) was 100 to 500 nM.

`CCS(=O)(=O)c1ccc(CC(=O)Nc2cc(C)c3c(n2)CCC(C)(c2nccn4ccnc24)C3=O)cc1` (stereo not shown) [Compound 26, 2-(4-(ethylsulfonyl)phenyl)-N-(6-(imidazo[1,2-a]pyrazin-8-yl)-4,6-dimethyl-5-oxo-5,6,7,8-tetrahydroquinolin-2-yl)acetamide]: at RORγ LBD, the inhibition at 1 µM is 65%, the inhibition at 10 µM was 99% and the half-inhibitory concentration (IC50) is greater than 300 nM. Moreover, the half-maximal inhibitory concentration (IC50) in assay [1] is 100 to 500 nM.

Take `CCS(=O)(=O)c1ccc(CC(=O)Nc2ccc3c(n2)CCC(C)(c2nccn4ccnc24)C3=O)cc1` (stereo not shown) [Compound 6, 2-(4-(ethylsulfonyl)phenyl)-N-(6-(imidazo[1,2-a]pyrazin-8-yl)-6-methyl-5-oxo-5,6,7,8-tetrahydroquinolin-2-yl)acetamide]: at RORγ LBD, testing at 1 µM gave an inhibition of 72%, the inhibition at 10 µM was determined as 96% and the IC50 lay within 150 to 300 nM. In addition, in assay [1], the IC50 fell in the range of 100 to 500 nM.

On to `CCS(=O)(=O)c1ccc(CC(=O)Nc2ccc3c(n2)CCC(C)(c2cc(C)nc(C)n2)C3=O)nc1` (single isomer, unassigned) [compound 124, N-(6-(2,6-dimethylpyrimidin-4-yl)-6-methyl-5-oxo-5,6,7,8-tetrahydroquinolin-2-yl)-2-(5-(ethylsulfonyl)pyridin-2-yl)acetamide], for which, in assay [1], the half-inhibitory concentration (IC50) was in the range of 100 to 500 nM.

With `CCS(=O)(=O)c1ccc(CC(=O)Nc2ccc3c(n2)CCC(C)(c2cc(C)nc(OC)n2)C3=O)cc1` (stereo not shown) [Compound 64, 2-(4-(ethylsulfonyl)phenyl)-N-(6-(2-methoxy-6-methylpyrimidin-4-yl)-6-methyl-5-oxo-5,6,7,8-tetrahydroquinolin-2-yl)acetamide], the IC50 in assay [1] is less than 100 nM.

`CCS(=O)(=O)c1ccc(CC(=O)Nc2ccc3c(n2)CCC(C)(c2nccn4cc(C(F)(F)F)nc24)C3=O)cc1` (stereo not shown) [Compound 72, 2-(4-(ethylsulfonyl)phenyl)-N-(6-methyl-5-oxo-6-(2-(trifluoromethyl)-imidazo[1,2-a]pyrazin-8-yl)-5,6,7,8-tetrahydroquinolin-2-yl)acetamide]: the half-maximal inhibitory concentration (IC50) in assay [1] was less than 100 nM.

Turning to `CCS(=O)(=O)c1ccc(CC(=O)Nc2ccc3c(n2)CCC(C)(c2nccn4c(F)c(C)nc24)C3=O)cc1` (stereo not shown) [Compound 66, 2-(4-(ethylsulfonyl)phenyl)-N-(6-(3-fluoro-2-methylimidazo[1,2-a]pyrazin-8-yl)-6-methyl-5-oxo-5,6,7,8-tetrahydroquinolin-2-yl)acetamide], the IC50 in assay [1] was less than 100 nM.

For the compound `CCS(=O)(=O)c1ccc(CC(=O)Nc2cc(C)c3c(n2)CCC(C)(c2nnc(OC)cc2C)C3=O)cc1` (stereo not shown) [Compound 95, 2-(4-(ethylsulfonyl)phenyl)-N-(6-(6-methoxy-4-methylpyridazin-3-yl)-4,6-dimethyl-5-oxo-5,6,7,8-tetrahydroquinolin-2-yl)acetamide], in assay [1], the IC50 was greater than 500 nM.

Take `CCS(=O)(=O)c1ccc(CNC(=O)c2cc3c(cn2)C(=O)C(C)(c2cc(C)nc(C)n2)CC3)cc1` (stereo not shown) [Compound-134, 7-(2,6-dimethylpyrimidin-4-yl)-N-(4-(ethylsulfonyl)benzyl)-7-methyl-8-oxo-5,6,7,8-tetrahydroisoquinoline-3-carboxamide]: the half-inhibitory concentration (IC50) in assay [1] lay within 100 to 500 nM.

As to `CCS(=O)(=O)c1ccc(CC(=O)Nc2ccc3c(n2)CCC(C)(c2cc(OC)nc(C)n2)C3=O)cc1` (single isomer, unassigned) [compound 115, 2-(4-(ethylsulfonyl)phenyl)-N-(6-(6-methoxy-2-methylpyrimidin-4-yl)-6-methyl-5-oxo-5,6,7,8-tetrahydroquinolin-2-yl)acetamide], the IC50 in assay [1] was less than 100 nM.

Regarding `CCS(=O)(=O)c1ccc(CC(=O)Nc2ccc3c(n2)CCC(C)(c2cc(OC)nc(C)n2)C3=O)cc1` (stereo not shown) [Compound 65, 2-(4-(ethylsulfonyl)phenyl)-N-(6-(6-methoxy-2-methylpyrimidin-4-yl)-6-methyl-5-oxo-5,6,7,8-tetrahydroquinolin-2-yl)acetamide], the IC50 in assay [1] was less than 100 nM.

For `CCS(=O)(=O)c1ccc(CC(=O)Nc2ccc3c(n2)CCC(C)(c2nc(C)cn4ccnc24)C3=O)cc1` (single isomer, unassigned) [compound 117, 2-(4-(ethylsulfonyl)phenyl)-N-(6-methyl-6-(6-methylimidazo[1,2-a]pyrazin-8-yl)-5-oxo-5,6,7,8-tetrahydroquinolin-2-yl)acetamide], in assay [1], the 50% inhibitory concentration (IC50) is greater than 500 nM.

As to `CCS(=O)(=O)c1ccc(CC(=O)Nc2ccc3c(n2)CC(C)C(c2cc(C)nc(C)n2)C3=O)cc1` (stereo not shown) [Compound 82, N-(6-(2,6-dimethylpyrimidin-4-yl)-7-methyl-5-oxo-5,6,7,8-tetrahydroquinolin-2-yl)-2-(4-(ethylsulfonyl)phenyl)acetamide], the IC50 in assay [1] was greater than 500 nM.

Turning to `CCS(=O)(=O)c1ccc(CNC(=O)c2ccc3c(n2)CCC(C)(c2cc(C)nc(C)n2)C3=O)cc1` (single isomer, unassigned) [compound 125, 6-(2,6-dimethylpyrimidin-4-yl)-N-(4-(ethylsulfonyl)benzyl)-6-methyl-5-oxo-5,6,7,8-tetrahydroquinoline-2-carboxamide], the IC50 in assay [1] was less than 100 nM.
